Results from patent US8865909B2, “Anti-biofilm agents” (Yissum Research Development Company of the Hebrew …, priority 2008, dated 2014).

Assays:
[1] = tested on: Candida albicans (ATCC 90028) preformed biofilm; experiment: C. albicans preformed (mature) biofilm, XTT reduction assay; format: cell-based; conditions: for activity on the preformed biofilm: 24 hours on 48-hour biofilm
Experimental: The effect of the compounds on biofilm formation was measured by using a metabolic reduction assay (XTT kit). Briefly, 100 μl of the XTT reaction solution (Biological Industries, Israel Beit Haemek Ltd.) was added to each well, and microtiter plate was then incubated in the dark for 2 hours at 37° C. The colorimetric change (a reflection of the metabolic activity of the biofilm) was measured with a microtiter plate reader at 492 nm. The anti-biofilm formation activity effect of the tested agents was expressed as the percentage of the optical density (OD) of the treated wells compared to that of control (untreated) wells for the XTT assays. Light microscopic examination of biofilms formed in microtiter plates was performed in parallel by using an inverted microscope.
C. albicans biofilm was formed during 48 hours at 37° C. on the surfaces of microtiter plates by using the protocol described hereinabove, and the tested ABF agents were then added to the preformed biofilm. Following biofilm formation the spent medium and the nonadherent cells were removed by washing the biofilms three times in sterile PBS. The tested compounds, the ABF agent at 25, 50, 100 μg/ml, fluconazole at 31.25, 62.5, 125 μg/ml, in fresh RPMI 1640—farnesol at 150 μM (33 μg/ml), were added to selected wells of the microtiter plates. In addition, the effect of combination of farnesol (33 μg/ml) with fluconazole (31.25 μg/ml) and the ABF agent (25 or 50 μg/ml) with fluconazole (31.25 μg/ml) was examined on preformed biofilms. The plates were then incubated for 24 hours at 37° C. The effect of the compounds on pre-formed biofilms was then estimated by using the XTT reduction assay as described hereinabove.

[2] = tested on: Candida albicans (ATCC 90028); experiment: C. albicans biofilm formation, XTT metabolic reduction assay; format: cell-based
Experimental: Candida albicans (ATCC 90028) was used to study the anti-biofilm formation activity of exemplary ABF agents according to embodiments of the present invention.
The C. albicans strain was propagated in yeast peptone dextrose (YPD) medium (1% wt/vol yeast extract, 2% wt/vol peptone, 2% wt/vol dextrose). Batches of medium (30 ml in 125 ml Erlenmeyer flask) were inoculated with material from Sabouraud dextrose agar (SDA) plates containing freshly grown C. albicans and incubated overnight in an orbital shaker (200 rpm) at 30° C. under aerobic conditions. C. albicans grew in the budding-yeast phase under these conditions. Cells were harvested and washed twice in sterile phosphate-buffered saline (PBS) (Oxoid Ltd, Basingstoke, Hampshire, UK). Thereafter the cells were resuspended in RPMI 1640 supplemented with L-glutamine and buffered with morpholinepropanesulfonic acid (MOPS) (Sigma Chemical Co., St. Louis, Mo.) and adjusted to the desired density after counting with a hematocytometer.
Biofilms of C. albicans were formed in the wells on commercially available presterilized, polystyrene, flat-bottomed, 96-well microtiter plates (Nunc—Nunclon™ Surface, Roskilde, Denmark). Biofilms were formed by pipetting 100 μl of the standardized cell suspensions (5×10^6 cells/ml) into selected wells of the microtiter plate and incubating the plate for 72 hours at 37° C. After 24 hours and 48 hours of the biofilm formation, the medium was replaced by fresh RPMI 1640 medium.
Working concentrations of farnesol (300 μM; 66 μg/ml) and the exemplary ABF agents TZD10 and TZD11 (200 μg/ml) were prepared in RPMI 1640 by using the stock solutions. […]
The effect of the compounds on biofilm formation was measured by using a metabolic reduction assay (XTT kit). […] The colorimetric change (a reflection of the metabolic activity of the biofilm) was measured with a microtiter plate reader at 492 nm. The anti-biofilm formation activity effect of the tested agents was expressed as the percentage of the optical density (OD) of the treated wells compared to that of control (untreated) wells for the XTT assays. […]

Row | Compound | activity on the preformed biofilm [1] | additive anti-biofilm effect of adding fluconazole ([1]; farnesol 33 μg/ml + fluconazole 31.25 μg/ml, pre-formed biofilm) | reduction in the metabolic activity of the yeast cells (XTT) ([2]; 33 μg/ml, 72 hours) [%] | additive effect of combination with fluconazole compared to farnesol alone ([2]; removed after 48 hours, fluconazole 31.25 μg/ml for another 24 hours) | reduction in the metabolic activity (XTT), biofilm formation ([2]; 31-125 μg/ml, 72 hours)
1 | CC(C)=CCC/C(C)=C/CC/C(C)=C/CO [farnesol] | no activity | no additive anti-biofilm effect | 43 | did not show any additive effect | –
2 | OC(Cn1cncn1)(Cn1cncn1)c1ccc(F)cc1F [fluconazole] | no activity | – | – | – | up to 77%
